One assay deals with Breast cancer cells. Nature of the assay: Cancer cell line growth inhibition (SRB assay). Format: cell-based. To be noted: Homo sapiens; MDA-MB-468; read-out: Cancer Cell Line GI50 Range MDA-MB-468. In general terms: Sulforhodamine B stains cellular protein and so reports cell mass.
Another assay deals with T1, ALK (Homo sapiens, UniProt Q9UM73).
T1 construct: purchased Millipore Corporation
Nature of the assay: Panel of 270 human kinases (Millipore). The class given is biochemical. The procedure: (§1) The inhibitory activity of selected compounds of the invention (A335, A405, A410, A261, A300 and A363) was evaluated against a panel of 270 different human kinase enzymes by Millipore Corporation. The % Inhibition was determined by the formula: % Inhibition=100×(1−(experimental value−background value)/(high activity control−background value)).

A further assay deals with T2, Aurora-B (Homo sapiens, UniProt Q96GD4).
T2 construct: purchased Millipore Corporation
Nature of the assay: Panel of 270 human kinases (Millipore). The class given is biochemical. The procedure:
as §1

In another assay the target is T3, JNK3 (Homo sapiens, UniProt P53779).
T3 construct: purchased Millipore Corporation
Nature of the assay: Panel of 270 human kinases (Millipore). The class given is biochemical. The procedure:
as §1

The next assay has as its target T4, MAPK2 (Homo sapiens, UniProt P28482).
T4 construct: purchased Millipore Corporation
Put plainly: Panel of 270 human kinases (Millipore). The class given is biochemical. The procedure: as §1

For another assay, the target named is T5, MELK (Homo sapiens, UniProt Q14680).
T5 construct: purchased Millipore Corporation
Nature of the assay: Panel of 270 human kinases (Millipore). The class given is biochemical. The procedure:
as §1

Another assay has as its target T6, MUSK (Homo sapiens, UniProt O15146).
T6 construct: purchased Millipore Corporation
T6 sequence (O15146 24-869): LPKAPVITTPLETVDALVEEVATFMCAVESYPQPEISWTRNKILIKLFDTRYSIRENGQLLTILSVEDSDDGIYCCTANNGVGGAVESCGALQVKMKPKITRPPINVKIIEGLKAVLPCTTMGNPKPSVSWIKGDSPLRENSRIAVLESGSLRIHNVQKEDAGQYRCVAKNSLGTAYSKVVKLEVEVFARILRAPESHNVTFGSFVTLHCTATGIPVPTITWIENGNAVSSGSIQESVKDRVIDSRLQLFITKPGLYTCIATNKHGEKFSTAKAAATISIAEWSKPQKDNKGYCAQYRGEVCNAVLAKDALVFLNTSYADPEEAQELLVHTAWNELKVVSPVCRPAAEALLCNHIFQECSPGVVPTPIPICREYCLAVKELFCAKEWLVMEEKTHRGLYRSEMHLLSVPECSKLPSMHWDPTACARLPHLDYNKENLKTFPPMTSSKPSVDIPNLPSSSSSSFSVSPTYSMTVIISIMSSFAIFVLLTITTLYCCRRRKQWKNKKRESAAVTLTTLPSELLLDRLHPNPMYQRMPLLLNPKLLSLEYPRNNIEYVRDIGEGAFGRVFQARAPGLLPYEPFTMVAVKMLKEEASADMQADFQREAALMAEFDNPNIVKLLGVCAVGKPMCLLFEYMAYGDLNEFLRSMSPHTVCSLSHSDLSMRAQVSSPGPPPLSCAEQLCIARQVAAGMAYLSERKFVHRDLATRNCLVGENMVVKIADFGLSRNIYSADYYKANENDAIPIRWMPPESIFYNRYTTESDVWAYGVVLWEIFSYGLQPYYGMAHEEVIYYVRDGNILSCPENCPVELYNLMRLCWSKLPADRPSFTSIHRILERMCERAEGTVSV
Nature of the assay: Panel of 270 human kinases (Millipore). The class given is biochemical. The procedure:
as §1

Another assay concerns the target T7, Met(Y1248C) (Homo sapiens, UniProt P08581, Y1230C).
T7 construct: purchased Millipore Corporation
Put plainly: Panel of 270 human kinases (Millipore). The class given is biochemical. As for the experimental part: as §1

A further assay concerns the target T8, cKit (V560G) (Homo sapiens, UniProt P10721, V560G).
T8 construct: purchased Millipore Corporation
Nature of the assay: Panel of 270 human kinases (Millipore). Format: biochemical. The procedure: as §1

A further assay has as its target T9, human PLK4 (Homo sapiens, UniProt O00444).
T9 construct: amino terminal GST fusion of residues 1-391 of human PLK4; made in house; host or cells: E. coli
T9 sequence (O00444 1-391): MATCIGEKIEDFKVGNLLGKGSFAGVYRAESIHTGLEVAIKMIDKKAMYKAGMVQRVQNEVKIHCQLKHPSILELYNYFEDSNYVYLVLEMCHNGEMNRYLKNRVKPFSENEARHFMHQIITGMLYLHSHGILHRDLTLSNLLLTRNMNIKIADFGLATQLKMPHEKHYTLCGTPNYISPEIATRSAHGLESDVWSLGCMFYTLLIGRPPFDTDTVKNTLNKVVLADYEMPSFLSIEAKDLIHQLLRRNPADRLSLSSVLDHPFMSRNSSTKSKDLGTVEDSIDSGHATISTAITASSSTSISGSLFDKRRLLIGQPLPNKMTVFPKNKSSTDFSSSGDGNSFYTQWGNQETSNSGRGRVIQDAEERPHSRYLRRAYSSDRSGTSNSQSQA
Nature of the assay: PLK4 inhibition assay (indirect ELISA). The class given is biochemical. To be noted: 15 μM ATP. Summed up:
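Dephosphorylated GST-PLK4 (residues 1-391, E. coli; 4 nM) was preincubated 15 min with compound, then reacted 30 min with 15 μM ATP in HEPES pH 7.4, MgCl2, Brij 35 on MBP-coated plates. Phospho-MBP was detected by antibody/HRP ELISA at 450 nm; IC50 from 10-point titration by 4-parameter logistic fit, or single 10 μM % inhibition.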
(In general: In an ELISA, binding on a coated surface is turned into a signal by an enzyme label.)

From patent US9580390B2, “Indazole compounds as kinase inhibitors and method of treating cancer with same” (University Health Network, priority 2011, dated 2017) come the findings set out here.

The term GI50 denotes the concentration that inhibits growth by half. In general, inhibition refers to the share of the control response that was lost under treatment. Higher therefore signals strong suppression. One may read the IC50 as the concentration that inhibits the measured activity by half.

Structures are written as SMILES. Some results are limits rather than exact numbers.

T1 sequence (Q9UM73 19-1620): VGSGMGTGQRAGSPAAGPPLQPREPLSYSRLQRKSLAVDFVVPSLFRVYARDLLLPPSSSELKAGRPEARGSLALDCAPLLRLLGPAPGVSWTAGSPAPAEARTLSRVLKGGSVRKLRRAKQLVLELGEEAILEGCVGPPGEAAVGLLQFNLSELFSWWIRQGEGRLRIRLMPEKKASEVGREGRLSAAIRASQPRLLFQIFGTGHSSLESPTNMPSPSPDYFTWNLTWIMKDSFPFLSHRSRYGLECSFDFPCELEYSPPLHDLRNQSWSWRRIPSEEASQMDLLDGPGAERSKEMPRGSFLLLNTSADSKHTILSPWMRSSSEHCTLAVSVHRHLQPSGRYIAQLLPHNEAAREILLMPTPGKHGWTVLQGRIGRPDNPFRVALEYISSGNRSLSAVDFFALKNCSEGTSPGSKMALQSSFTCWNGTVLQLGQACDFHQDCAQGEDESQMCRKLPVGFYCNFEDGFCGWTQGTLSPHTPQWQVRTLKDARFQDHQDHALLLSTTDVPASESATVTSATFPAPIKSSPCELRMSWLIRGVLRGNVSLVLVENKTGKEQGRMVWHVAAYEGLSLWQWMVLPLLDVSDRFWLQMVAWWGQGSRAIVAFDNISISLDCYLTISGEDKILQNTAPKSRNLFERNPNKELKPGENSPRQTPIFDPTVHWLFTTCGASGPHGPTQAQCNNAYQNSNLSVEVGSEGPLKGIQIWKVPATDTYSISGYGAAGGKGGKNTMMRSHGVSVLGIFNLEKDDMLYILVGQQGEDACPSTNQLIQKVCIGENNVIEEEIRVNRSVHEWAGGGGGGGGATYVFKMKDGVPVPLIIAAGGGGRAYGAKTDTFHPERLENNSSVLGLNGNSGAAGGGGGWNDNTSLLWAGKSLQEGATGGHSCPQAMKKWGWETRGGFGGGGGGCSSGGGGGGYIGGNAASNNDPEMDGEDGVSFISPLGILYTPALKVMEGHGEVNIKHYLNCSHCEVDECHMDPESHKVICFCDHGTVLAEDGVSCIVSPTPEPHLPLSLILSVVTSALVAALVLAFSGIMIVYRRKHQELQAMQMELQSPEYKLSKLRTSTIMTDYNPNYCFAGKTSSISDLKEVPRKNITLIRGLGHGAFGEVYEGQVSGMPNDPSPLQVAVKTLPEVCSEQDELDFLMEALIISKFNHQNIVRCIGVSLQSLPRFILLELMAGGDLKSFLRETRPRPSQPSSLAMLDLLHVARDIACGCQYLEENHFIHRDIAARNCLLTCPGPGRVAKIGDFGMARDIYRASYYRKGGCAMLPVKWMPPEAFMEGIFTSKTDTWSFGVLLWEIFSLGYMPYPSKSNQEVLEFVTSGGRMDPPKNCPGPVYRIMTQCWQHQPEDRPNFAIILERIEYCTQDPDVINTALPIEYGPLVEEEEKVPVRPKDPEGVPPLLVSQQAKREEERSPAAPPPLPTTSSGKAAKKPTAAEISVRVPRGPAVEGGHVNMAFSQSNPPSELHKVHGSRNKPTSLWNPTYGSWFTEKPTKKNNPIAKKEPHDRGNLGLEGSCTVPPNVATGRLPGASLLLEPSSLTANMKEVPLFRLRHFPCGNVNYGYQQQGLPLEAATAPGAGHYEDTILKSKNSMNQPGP
T5 sequence (Q14680 whole entry): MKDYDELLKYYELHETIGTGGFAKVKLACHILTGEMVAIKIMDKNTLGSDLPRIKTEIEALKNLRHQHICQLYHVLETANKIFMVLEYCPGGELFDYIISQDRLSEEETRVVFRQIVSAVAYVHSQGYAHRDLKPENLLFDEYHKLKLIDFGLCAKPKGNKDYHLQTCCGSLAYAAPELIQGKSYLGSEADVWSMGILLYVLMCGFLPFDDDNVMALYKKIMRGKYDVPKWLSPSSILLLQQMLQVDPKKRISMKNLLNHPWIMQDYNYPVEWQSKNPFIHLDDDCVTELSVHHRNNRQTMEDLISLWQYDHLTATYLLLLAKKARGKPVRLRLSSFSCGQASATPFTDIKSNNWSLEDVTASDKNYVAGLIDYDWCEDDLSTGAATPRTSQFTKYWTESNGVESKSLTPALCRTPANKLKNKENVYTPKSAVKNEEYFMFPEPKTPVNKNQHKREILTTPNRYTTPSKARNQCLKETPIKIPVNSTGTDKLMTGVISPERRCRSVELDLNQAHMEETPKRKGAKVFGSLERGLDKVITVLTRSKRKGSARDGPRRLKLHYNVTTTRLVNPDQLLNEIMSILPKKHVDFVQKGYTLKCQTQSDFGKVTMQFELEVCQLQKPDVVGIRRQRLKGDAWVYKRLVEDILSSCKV
T4 sequence (P28482 whole entry): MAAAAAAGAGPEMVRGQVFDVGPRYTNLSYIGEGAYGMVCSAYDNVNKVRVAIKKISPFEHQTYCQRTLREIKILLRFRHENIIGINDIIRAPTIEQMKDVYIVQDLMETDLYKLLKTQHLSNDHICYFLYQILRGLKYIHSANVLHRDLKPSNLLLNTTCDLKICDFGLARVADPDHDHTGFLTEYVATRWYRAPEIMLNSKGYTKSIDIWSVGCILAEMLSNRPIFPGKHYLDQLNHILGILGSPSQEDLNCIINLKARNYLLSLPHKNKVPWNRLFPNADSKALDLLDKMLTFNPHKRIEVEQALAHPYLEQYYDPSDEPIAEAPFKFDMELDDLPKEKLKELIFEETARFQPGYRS
T3 sequence (P53779 whole entry): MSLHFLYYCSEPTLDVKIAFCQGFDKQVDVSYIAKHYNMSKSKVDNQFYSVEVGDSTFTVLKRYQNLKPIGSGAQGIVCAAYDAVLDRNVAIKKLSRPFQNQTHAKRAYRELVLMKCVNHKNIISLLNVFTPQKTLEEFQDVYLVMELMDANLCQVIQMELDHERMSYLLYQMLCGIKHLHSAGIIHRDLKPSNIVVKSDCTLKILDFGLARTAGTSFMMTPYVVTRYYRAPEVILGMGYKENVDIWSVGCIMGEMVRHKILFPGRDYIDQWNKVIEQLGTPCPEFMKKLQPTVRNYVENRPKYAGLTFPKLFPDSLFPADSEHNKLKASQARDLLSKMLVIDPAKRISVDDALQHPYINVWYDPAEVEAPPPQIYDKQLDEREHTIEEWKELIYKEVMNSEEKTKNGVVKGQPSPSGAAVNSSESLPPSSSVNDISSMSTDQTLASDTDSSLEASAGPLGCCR
T2 sequence (Q96GD4 whole entry): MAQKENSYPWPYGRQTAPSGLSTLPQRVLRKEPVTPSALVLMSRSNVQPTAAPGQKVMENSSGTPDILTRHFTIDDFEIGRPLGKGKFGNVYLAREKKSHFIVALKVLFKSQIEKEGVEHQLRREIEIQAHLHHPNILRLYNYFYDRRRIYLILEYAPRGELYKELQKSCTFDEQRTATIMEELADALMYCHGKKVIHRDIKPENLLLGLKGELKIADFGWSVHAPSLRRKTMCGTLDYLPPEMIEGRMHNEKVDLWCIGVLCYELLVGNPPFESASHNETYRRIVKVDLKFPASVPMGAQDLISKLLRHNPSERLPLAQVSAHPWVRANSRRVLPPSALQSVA
T8 sequence (P10721 26-976 V560G): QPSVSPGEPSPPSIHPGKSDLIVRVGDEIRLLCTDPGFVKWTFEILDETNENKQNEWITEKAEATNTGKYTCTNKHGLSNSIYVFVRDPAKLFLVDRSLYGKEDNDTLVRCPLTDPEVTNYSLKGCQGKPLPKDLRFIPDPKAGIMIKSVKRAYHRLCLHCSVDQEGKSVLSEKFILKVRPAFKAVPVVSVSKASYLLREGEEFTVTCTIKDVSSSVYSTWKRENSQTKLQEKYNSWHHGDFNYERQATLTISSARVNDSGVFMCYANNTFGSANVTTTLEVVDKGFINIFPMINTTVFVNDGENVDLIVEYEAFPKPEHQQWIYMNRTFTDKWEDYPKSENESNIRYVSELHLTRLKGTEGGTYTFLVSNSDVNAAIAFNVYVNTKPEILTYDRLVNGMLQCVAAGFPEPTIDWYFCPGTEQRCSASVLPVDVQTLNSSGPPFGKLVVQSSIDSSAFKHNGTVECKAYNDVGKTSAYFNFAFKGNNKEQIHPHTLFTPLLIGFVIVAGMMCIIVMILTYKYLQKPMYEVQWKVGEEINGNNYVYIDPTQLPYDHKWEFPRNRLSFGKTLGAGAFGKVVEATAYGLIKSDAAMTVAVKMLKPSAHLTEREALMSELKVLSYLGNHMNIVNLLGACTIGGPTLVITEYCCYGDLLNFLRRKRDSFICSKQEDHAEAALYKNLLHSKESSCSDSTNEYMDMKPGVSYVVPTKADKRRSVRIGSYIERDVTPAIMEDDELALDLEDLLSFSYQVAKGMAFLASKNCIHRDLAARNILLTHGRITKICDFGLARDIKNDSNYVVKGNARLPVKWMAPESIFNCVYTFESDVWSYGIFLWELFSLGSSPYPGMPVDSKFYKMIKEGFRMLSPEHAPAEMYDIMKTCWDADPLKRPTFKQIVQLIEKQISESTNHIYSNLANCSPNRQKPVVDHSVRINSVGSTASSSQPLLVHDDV

For `CC(C)C[C@@H](NC(=O)c1ccc2[nH]nc(-c3ccc(N4CCN(C5COC5)CC4)cc3)c2c1)c1ccccc1Cl` [Example A300, (R)-N-(1-(2-chlorophenyl)-3-methylbutyl)-3-(4-(4-(oxetan-3-yl)piperazin-1-yl)phenyl)-1H-indazole-5-carboxamide], the concentration for 50% growth inhibition (GI50) in the assay with Breast cancer cells is less than 100 nM. The inhibition at 1 µM on ALK worked out at 0%; against Aurora-B, 69%; against JNK3, 48%; against MAPK2 it was 5%; against MELK it was 51%; against MUSK, 54%. The inhibition at 1 µM on Met(Y1248C) is 40%; against cKit (V560G) it was 76%. For the same molecule, the IC50 at human PLK4 was less than 50 nM.
Consider `CC(C)[C@H](NC(=O)c1ccc2[nH]nc(-c3ccc(OC4CC5CCC(C4)N5C4COC4)cc3)c2c1)c1ccccc1Cl` (some centres unmarked) [Example A335], for which the concentration for 50% growth inhibition (GI50) in the assay with Breast cancer cells fell in the range of 100 to 500 nM. The inhibition at 1 µM on ALK amounted to 7%; against Aurora-B, 87%; on JNK3, 85%; against MAPK2 it was 0%; at MELK it was 97%; on MUSK it was 91%. Besides, the inhibition at 1 µM came out at 42% at Met(Y1248C) and 66% at cKit (V560G). Further, at human PLK4, the IC50 was less than 50 nM.
